Test: solubility of the PPB-enone isomers in crystallization solvents
Format: physicochemical
Description: The solubility (g/100 ml) of the PPB-enone isomers in some of the solvents with which crystallization was attempted is shown below: […]

Structure (SMILES) | solubility (DIPE, 23° C.) | solubility (DIPE, Reflux) | solubility (EtOH, 23° C.) | solubility (EtOH, Reflux) | solubility (MeOH, 23° C.) | solubility (MeOH, Reflux) | solubility (TBME, 23° C.) | solubility (TBME, Reflux) | solubility (iPrOH, 23° C.) | solubility (iPrOH, Reflux)
Cc1cccc([C@@H](C)C(=O)/C=C/[C@@H]2[C@H]3CC(=O)O[C@H]3C[C@H]2OC(=O)c2ccc(-c3ccccc3)cc2)c1 [16-(R)-PPB-enone, [(3aR,4R,5R,6aS)-4-[(E,4R)-4-(m-tolyl)-3-oxo-pent-1-enyl]-2-oxo-3,3a,4,5,6,6a-hexahydrocyclopenta[b]furan-5-yl] 4-phenylbenzoate] | in- | in- | 0.43 g/100 ml | 4.00 g/100 ml | 0.45 g/100 ml | 5.00 g/100 ml | 0.71 g/100 ml | 8.00 g/100 ml | 0.18 g/100 ml | 2.22 g/100 ml
Cc1cccc(C(C)C(=O)/C=C/[C@@H]2[C@H]3CC(=O)O[C@H]3C[C@H]2OC(=O)c2ccc(-c3ccccc3)cc2)c1 (stereo partly drawn) [16-(R,S)-PPB-enone, [(3aR,4R,5R,6aS)-4-[(E)-4-(m-tolyl)-3-oxo-pent-1-enyl]-2-oxo-3,3a,4,5,6,6a-hexahydrocyclopenta[b]furan-5-yl] 4-phenylbenzoate] | insoluble | in- | insoluble | 0.77 g/100 ml | insoluble | 0.91 g/100 ml | 0.14 g/100 ml | 0.33 g/100 ml | insoluble | 0.80 g/100 ml
Cc1cccc([C@H](C)C(=O)/C=C/[C@@H]2[C@H]3CC(=O)O[C@H]3C[C@H]2OC(=O)c2ccc(-c3ccccc3)cc2)c1 [16-(S)-PPB-enone, [(3aR,4R,5R,6aS)-4-[(E,4S)-4-(m-tolyl)-3-oxo-pent-1-enyl]-2-oxo-3,3a,4,5,6,6a-hexahydrocyclopenta[b]furan-5-yl] 4-phenylbenzoate] | insoluble | 0.2 g/100 ml | insoluble | 0.33 g/100 ml | insoluble | 0.33 g/100 ml | insoluble | 0.13 g/100 ml | insoluble | 0.29 g/100 ml

Source: patent publication US12195434B2, “Process for the preparation of a chiral prostaglandin enol intermediate and intermediate compounds useful in the process” (EUROAPI HUNGARY LIMITED LIABILITY COMPANY, priority 2019, dated 2025)
